{
  "source": "ChEMBL document CHEMBL1151623",
  "about": "“Flavonoids from Brickellia glutinosa” (J Nat Prod, 1984)",
  "key": {"[1]": {"target": "Aldo-keto reductase family 1 member B1 (Homo sapiens) (UniProt P15121)", "assay": "Inhibition of aldose reductase at 1 uM"}, "[2]": {"target": "Aldo-keto reductase family 1 member B1 (Homo sapiens) (UniProt P15121)", "assay": "Inhibition of aldose reductase at 0.1 uM"}},
  "data": [
    {"smiles": "COc1cc2oc(-c3ccc(O)cc3)c(OC)c(=O)c2c(O)c1OC", "values": [
      {"measurement": "inhibition", "setting": "[1]", "value": 21, "unit": "%"},
      {"measurement": "inhibition", "setting": "[2]", "value": 64, "unit": "%"}
    ]},
    {"smiles": "COc1c(-c2ccc(O)c(O)c2)oc2cc(O)cc(O)c2c1=O", "values": [
      {"measurement": "inhibition", "setting": "[1]", "value": 78, "unit": "%"},
      {"measurement": "inhibition", "setting": "[2]", "value": 95, "unit": "%"}
    ]},
    {"smiles": "COc1cc2oc(-c3ccc(O)c(O)c3)c(OC)c(=O)c2c(O)c1OC", "values": [
      {"measurement": "inhibition", "setting": "[1]", "value": 63, "unit": "%"},
      {"measurement": "inhibition", "setting": "[2]", "value": 88, "unit": "%"}
    ]},
    {"smiles": "COc1ccc(-c2oc3cc(O[C@@H]4O[C@H](CO)[C@@H](O)[C@H](O)[C@H]4O)c(OC)c(O)c3c(=O)c2OC)cc1O", "values": [
      {"measurement": "inhibition", "setting": "[1]", "value": 0, "unit": "%"},
      {"measurement": "inhibition", "setting": "[2]", "value": 47, "unit": "%"}
    ]},
    {"smiles": "COc1cc2oc(-c3ccc(O)c(O)c3)c(OC)c(=O)c2c(O)c1O", "values": [
      {"measurement": "inhibition", "setting": "[1]", "value": 71, "unit": "%"},
      {"measurement": "inhibition", "setting": "[2]", "value": 97, "unit": "%"}
    ]},
    {"smiles": "C[C@@H]1O[C@@H](Oc2c(-c3ccc(O)c(O)c3)oc3cc(O)cc(O)c3c2=O)[C@H](O)[C@H](O)[C@H]1O", "values": [
      {"measurement": "inhibition", "setting": "[1]", "value": 82, "unit": "%"},
      {"measurement": "inhibition", "setting": "[2]", "value": 91, "unit": "%"}
    ]},
    {"smiles": "O=C1NC(=O)c2cccc3cccc1c23", "values": [
      {"measurement": "inhibition", "setting": "[1]", "value": 44, "unit": "%"},
      {"measurement": "inhibition", "setting": "[2]", "value": 92, "unit": "%"}
    ]}
  ]
}
